Results as given in PubChem BioAssay (NCI).
Where “and” joins values, the source holds several entries; their conditions need not be identical. Equal entries are not always repeated.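 Assay format: 96-well plates, 48-hour exposure. GI50: concentration for 50% inhibition of growth. TGI denotes the concentration required for complete inhibition of growth.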

Tests used:
Test in all cases: NCI-60 cell line screen, 48 h
[1] = test system: BT-549 breast
[2] = test system: NCI/ADR-RES ovarian
[3] = test system: T-47D breast
[4] = test system: SK-MEL-28 melanoma
[5] = test system: UACC-257 melanoma
[6] = test system: EKVX NSCLC
[7] = test system: SK-MEL-5 melanoma
[8] = test system: HCT-15 colon
[9] = test system: ACHN renal
[10] = test system: LOX IMVI melanoma
[11] = test system: NCI-H23 lung
[12] = test system: OVCAR-5 ovarian
[13] = test system: SF-295 CNS
[14] = test system: MDA-MB-435
[15] = test system: DU-145 prostate
[16] = test system: UACC-62 melanoma
[17] = test system: RPMI-8226 leukemia
[18] = test system: M14 melanoma
[19] = test system: IGROV1 ovarian
[20] = test system: OVCAR-8 ovarian
[21] = test system: MOLT-4 leukemia
[22] = test system: TK-10 renal
[23] = test system: HCT-116 colon
[24] = test system: NCI-H522 lung
[25] = test system: MDA-MB-231 breast
[26] = test system: HOP-62 NSCLC
[27] = test system: SW-620 colon
[28] = test system: OVCAR-4 ovarian
[29] = test system: PC-3 prostate
[30] = test system: U251 CNS
[31] = test system: RXF 393 renal
[32] = test system: SF-539 CNS
[33] = test system: A498 renal
[34] = test system: CAKI-1 renal
[35] = test system: HS 578T breast
[36] = test system: 786-0 renal
[37] = test system: OVCAR-3 ovarian
[38] = test system: UO-31 renal
[39] = test system: COLO 205 colon
[40] = test system: A549 NSCLC
[41] = test system: MALME-3M melanoma
[42] = test system: SF-268 CNS
[43] = test system: NCI-H460 lung
[44] = test system: SR leukemia
[45] = test system: SN12C renal
[46] = test system: HOP-92 NSCLC
[47] = test system: MCF7 breast
[48] = test system: K-562 leukemia
[49] = test system: SK-MEL-2 melanoma
[50] = test system: CCRF-CEM leukemia
[51] = test system: SK-OV-3 ovarian
[52] = test system: NCI-H226 lung
[53] = test system: HCC-2998 colon
[54] = test system: HT29 colon
[55] = test system: KM12 colon
[56] = test system: SNB-19 CNS
[57] = test system: HL-60(TB) leukemia

CO/N=C/C=C\C(=O)N/C=C/C[C@H]1/C=C/[C@H](O)/C=C\C=C\c2cccc(O)c2C(=O)O1
GI50 [1]: < 19.7 nM and 24.7 nM | TGI [1]: 5.96 µM and 32.9 µM | GI50 [2]: 139 nM and 77.1 nM | TGI [2]: > 100 µM | GI50 [3]: < 10 nM and 27.3 nM | TGI [3]: 64.7 µM and > 71.7 µM | GI50 [4]: 303 nM and 309 nM | TGI [4]: 13.4 µM and 8.66 µM | GI50 [5]: 24.8 nM and 49.3 nM | TGI [5]: 659 nM and 4170 nM | GI50 [6]: 189 nM and 467 nM | TGI [6]: > 100 µM | GI50 [7]: < 10 nM | TGI [7]: < 11.3 nM and 20.4 nM | GI50 [8]: 62.4 nM and 44.7 nM | TGI [8]: 9.7 µM and 7.34 µM | GI50 [9]: 39 nM and 54.2 nM | TGI [9]: 15.7 µM and 15.2 µM | GI50 [10]: < 10 nM | TGI [10]: 16 nM | GI50 [11]: 2650 nM and 463 nM | TGI [11]: > 100 µM and 36.1 µM | GI50 [12]: < 11 nM and 32.6 nM | TGI [12]: 14.4 µM and > 54.4 µM | GI50 [13]: 22.9 nM and 19.8 nM | TGI [13]: 117 nM and 84.5 nM | GI50 [14]: 36.8 nM and 37 nM | TGI [14]: 1960 nM and 482 nM | GI50 [15]: 81.6 nM and 41.3 nM | TGI [15]: > 54 µM and 22.9 µM | GI50 [16]: < 14.8 nM and 22 nM | TGI [16]: 79.5 nM and 60.5 nM | GI50 [17]: 26.5 nM and 30.9 nM | TGI [17]: 6.8 µM and 2.21 µM | GI50 [18]: < 10 nM and 15.2 nM | TGI [18]: 119 nM and 136 nM | GI50 [19]: < 10 nM and 12.9 nM | TGI [19]: > 49 µM and 30.9 µM | GI50 [20]: 19.1 nM and 33 nM | TGI [20]: > 100 µM | GI50 [21]: 43.9 nM and 79 nM | TGI [21]: 14 µM and 23.5 µM | TGI [22]: 45.1 µM and > 100 µM | GI50 [23]: < 10 nM and 20.7 nM | TGI [23]: 12.8 µM and 12.9 µM | GI50 [24]: 17.6 nM and 31.1 nM | TGI [24]: 14.3 µM and 7.12 µM | GI50 [25]: < 10 nM | TGI [25]: 6.64 µM | GI50 [26]: 266 nM and 65.9 nM | GI50 [27]: 43.3 nM and 62.8 nM | TGI [27]: 12.4 µM and 11.3 µM | GI50 [28]: 17.3 µM and 2.74 µM | TGI [28]: > 100 µM | GI50 [29]: 94.6 nM and 47.7 nM | TGI [29]: 81.4 µM and > 54.9 µM | GI50 [30]: 100 nM and 28.7 nM | TGI [30]: 62.1 µM and 14.7 µM | GI50 [31]: 931 nM and 108 nM | TGI [31]: 34.5 µM and 12.9 µM | GI50 [32]: 46 nM and 51.4 nM | TGI [32]: 4.2 µM and 1.83 µM | GI50 [33]: 722 nM | TGI [33]: 5.42 µM | GI50 [34]: < 10 nM | GI50 [35]: 454 nM and 199 nM | TGI [35]: > 100 µM | GI50 [36]: 54 nM and 125 nM | TGI [36]: 15.6 µM and 4.03 µM | GI50 [37]: 457 nM and 653 nM | TGI [37]: 23.8 µM and 27.3 µM | GI50 [38]: 61 nM and 92.5 nM | TGI [38]: 455 nM and 1230 nM | GI50 [39]: 26.6 nM and 32.6 nM | TGI [39]: 16 µM and 14.1 µM | GI50 [40]: 111 nM and 82.2 nM | TGI [40]: > 100 µM | GI50 [41]: 114 nM and 89.9 nM | TGI [41]: 5.88 µM and 10.6 µM | GI50 [42]: 204 nM and 137 nM | TGI [42]: > 100 µM and 33.8 µM | GI50 [43]: 36.4 nM and 58.3 nM | TGI [43]: 11.1 µM and 5.34 µM | GI50 [44]: < 10 nM | TGI [44]: 13.8 µM and > 100 µM | GI50 [45]: < 17.6 nM and 16.5 nM | TGI [45]: > 72.9 µM | GI50 [46]: < 10 nM and 19 nM | TGI [46]: 74.5 nM and 492 nM | GI50 [47]: 99.7 nM and 58.1 nM | TGI [47]: > 100 µM and 26.7 µM | GI50 [48]: 27.5 nM and 35.8 nM | TGI [48]: > 100 µM | GI50 [49]: 118 nM and 138 nM | TGI [49]: 1060 nM and 1760 nM | GI50 [50]: 62.1 nM and 62.2 nM | TGI [50]: > 77 µM | TGI [51]: > 100 µM | GI50 [52]: 829 nM and 1310 nM | TGI [52]: 13.3 µM and 25.8 µM | GI50 [53]: 430 nM and 208 nM | TGI [53]: 31 µM and 7.54 µM | GI50 [54]: < 10 nM and 39.5 nM | TGI [54]: 11.2 µM and > 33.7 µM | GI50 [55]: 40.7 nM and 52 nM | TGI [55]: 17.2 µM and 15.1 µM | GI50 [56]: 2.81 µM and 3.47 µM | TGI [56]: > 100 µM | GI50 [57]: 20.8 nM and 37.3 nM
